Assay results as given in patent US10660910B2, “Use of sedoheptulose for prevention or treatment of inflammation” (C7 SUGAR GMBH, priority 2013, dated 2020).

Columns and labels:
[1] = Glucose and sedoheptulose measurement in human serum before and after carrot meal (GC-MS); assay type: in vivo; conditions: humans, two hours after a meal of mainly steamed carrots (~700 g per male adult) vs overnight fasted, n=4, FIG. 1B
From the text: Fresh carrots with an Austrian “organic-certificate” were sliced into small pieces and snap-frozen in liquid nitrogen. The same procedure was applied to leaves freshly harvested from indoor-grown Sedum Spectabile plants. Three samples of each tissue were pooled and homogenized to powder by glass-beads. The carbohydrate rich fractions of the samples were isolated by 20% H2O and 80% MeOH extraction solution spiked with 13 C standards and processed for standard gas-chromatography coupled to mass spectrometry (GC-MS). Glucose and sedoheptulose were identified by their individual masses and their relative amount was derived from the peak area of each individual analyte normalized to 13 C content. Glucose and sedoheptulose were also measured in equal volumes of serum from overnight fasted or carrot fed individuals. The carrots were steamed and some olive-oil, salt and pepper were used for flavour. Two hours before and two hours after the carrot containing meal human serum was prepared in VACUETTE® Z Serum Sep tubes from blood. Serum samples were processed as previously described and also analyzed by GC-MS as detailed above and in Ruiz-Matute AI et al., Chromatogr B Analyt Technol Biomed Life Sci. (2011) May 15 879(17-18).

osteoclasts = test: In vitro bone resorption assay; assay type: cell-based, mouse
Method: Mouse bones were isolated from male wild-type and CARKL overexpressing mice and bone marrow wash flushed, washed and cleared from redblood cells by lysis, and subsequently differentiated in DMEM containing 25 mM glucose and 20 ng/ml M-CSF. After 4 days, cells for osteoclast differentiation were harvested and seeded in corning osteo assay plates with differentiation media (see below), and for primary bone marrow derived macrophages (BMDM) the medium was renewed and further supplemented with M-SCF for two days. Differentiated BMDM were then seeded in respective DMEM-media containing 10% FBS and indicated carbohydrate mixes at 3 g/L (glucose and fructose (GF), or glucose, fructose and sedoheptulose (GFS)) at least two days before experiments were performed. Osteoclast precursor cells (bone marrow cells treated with 20 ng/ml M-CSF for 4 days) were plated in 24-well Corning Osteo Assay plate in the presence of 10 ng/ml M-CSF and 100 ng/ml RANKL in alpha-MEM medium containing 10% FBS and 3 g/L either glucose and fructose (GF), or glucose, fructose, and sedoheptulose (GFS). The Medium was renewed every third day. […] Each well was entirely photographed by TissueFax with an ×20 objective and all visible resorption pits were counted and analysed blinded.

mature murine adipocytes = test: Mature murine adipocytes ceiling culture, cytokine mRNA by RT-PCR; assay type: cell-based, mouse; conditions: three days in GFS vs GF media
Method: Anterior and posterior subcutaneous adipose tissue and epididymal white adipose tissue was isolated from transgenic CARKL-mice and wild-type littermate controls. Adipose tissue was digested as described above for the human sample. After centrifugation, the layer of floating mature adipocytes was removed and re-centrifuged at 100 rcf for 10 minutes. 150 μL, of packed adipocytes were cultured under a floating coverslip in six-well plates, in DMEM/F12, 15% calf serum (PAA). 24 hours after isolation, the wells were washed twice with PBS and the medium was exchanged to DMEM/F12 with a total carbohydrate load of 3 g/L, containing 1.5 g/L glucose and fructose, or 1 g/L each of glucose, fructose and sedoheptulose, respectively. Three days later, the cells were harvested for RNA isolation using TRIreagent (Sigma).
(§1) Briefly, total RNA was extracted and reverse-transcribed using commercial kits (QIAGEN, Applied Biosystems). Quantitative real-time PCRs were performed on an AbiPRISM 7900HT real-time cycler using iTaq SYBR Green Supermix with ROX (BioRad) to measure CARKL, adiponectin, UCP-1, TNFa, IL-6, MCP-1, and beta-actin expression as previously described (Haschemi et al., Cell Metab. 15 (2012), 813-826). Expression of target gene was normalized to beta-actin expression. Relative expression of target gene was calculated by the delta-delta CT method.

primary human adipocytes = test: Human adipocyte culture in GF or GFS media, gene expression by RT-PCR; assay type: cell-based
Method: Stromal vascular fraction cells (SVFs) from subcutaneous white adipose tissue of a patient undergoing abdominal surgery were isolated as described before (Lindroos et al, Cell Metab. (2013), July 2; 18(1):62-74.). Briefly, adipose tissue was digested with Collagenase II (Worthington) and filtered. SVFs were separated from mature adipocytes by centrifugation, followed by the lysis of erythrocytes in the SVF-fraction (Buffer EL, Qiagen). The purified SVFs were cultured in DMEM/F12, 10% FBS (Gibco, Life Technologies). As soon as the cells reached confluence, they were washed with DMEM/F12 w/o glucose (Biowest) and the medium was replaced by DMEM/F12 with a total carbohydrate load of 3 g/L, containing 1.5 g/L glucose and fructose or 1 g/L each of glucose, fructose, and sedoheptulose, respectively. Two days after confluence (day 0), differentiation was induced by adding 1 μM dexamethasone, 1.74 μM insulin, 5 μM troglitazone, […], 17 μM pantothenic acid and 33 μM biotin. After two days, IBMX and dexamethasone were omitted, while insulin and troglitazone were removed on day 4. 50% of the medium was replaced on day 6. Two days later, the cells were harvested for RNA isolation (RNeasy mini kit, Qiagen).
as §1

[2] = system: Glucose-6-phosphate dehydrogenase (G6PD) in hepatocytes; test: Glucose-6-phosphate dehydrogenase activity assay (enzyme histochemistry) in hepatocytes; assay type: cell-based, mouse; conditions: WT cells incubated in cell culture media with sedoheptulose; compared with phenotype of CARKL overexpressing cells; data not shown
Method: Hepatocytes were isolated from male wild-type and CARKL overexpressing mice after the mice were sacrificed by hepatic in situ collagenase perfusion. After perfusion, the liver was quickly removed, minced, and filtered through a cell strainer (Fisher Scientific, Inc) into a 50 ml sterile tube. Hepatocytes in the resulting filtrate were purified from the nonparenchymal cells by centrifugation steps. The isolated hepatocytes were seeded into plates at a concentration of 0.25×10^6/ml in respective DMEM-media containing 10% FBS and indicated carbohydrate mixes at 3 g/L (glucose and fructose (GF), or glucose, fructose and sedoheptulose (GFS)) at least two days before experiments were performed. Cells were grown on polystyrene vessel tissue culture treated glass slides, snap frozen in liquid nitrogen and kept at −80° C. The enzyme histochemical procedure was based on the tetrazolium salt method as described by Van Noorden and Frederiks. […] The medium was freshly prepared immediately before incubation. Control reactions additionally contained 40 mM glucosamine-6-phosphate. Cells were incubated at room temperature for 15 minutes under continuous mixing by orbital shaker. After incubation, cells were washed 3×5 minutes in […] phosphate buffered saline, dried, and mounted in glycerol gelatin, and photographed within one day at ×10 magnification.

SMILES: O=C(CO)[C@@H](O)[C@H](O)[C@H](O)[C@H](O)CO [sedoheptulose, Sedoheptulose]
- increase in sedoheptulose serum levels [1]: approximately two-fold
- pit formation by osteoclasts (osteoclasts; 7 days in Corning Osteo Assay plates, GFS vs GF media, FIG. 5C): reduced
- larger resorption-pits (osteoclasts; WT osteoclasts in GF or GFS media, FIG. 5D): found only in the absence of sedoheptulose
- TNFa mRNA (mature murine adipocytes; FIG. 3F): less
- IL-6 mRNA (mature murine adipocytes; FIG. 3G): less
- sedoheptulose kinase CARKL mRNA expression (primary human adipocytes; GFS media (1 g/L each glucose, fructose, sedoheptulose) vs GF (1.5 g/L each), eight days differentiation, FIG. 3A): increase
- adiponectin expression (primary human adipocytes; GFS vs GF treated cells, eight days, FIG. 3B): increase
- UCP-1 expression (primary human adipocytes; GFS vs GF treated cells, eight days, FIG. 3C): increase
- G6PD activity distribution (re-localization of G6PD, reduced activity in the inner space of the cells) [2]: same phenotype
